According to PubChem BioAssay AID1963986 (Molecular Pharmacology Branch, DTP, NCI, 2024):

Tested on: 171881-019-R-J1-PDC tumor spheroid viability
Assay: Anticancer human tumor 171881-019-R-J1-PDC patient-derived invasive breast carcinoma cell line growth inhibition [PI3K]
Conditions: spheroids with HUVEC and MSC; for IC50: curve of first compound; for viability, T/C: stronger effect = lower value
Outline: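 Tumor cells grown as multi-cell spheroids with HUVEC endothelial cells and MSC fibroblast-like stroma were treated with targeted agents combined with inavolisib, alpelisib, duvelisib or copanlisib. Doses fell in half-log steps from near clinical Cmax, else from 10 microM. Viability was measured.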

[1] = second compound 0.0316 µM, first compound 0.0316 µM
[2] = second compound 0.0316 µM, first compound 0.1 µM
[3] = second compound 0.0316 µM, first compound 0.316 µM
[4] = second compound 0.0316 µM, first compound 1 µM
[5] = second compound 0.1 µM, first compound 0.0316 µM
[6] = second compound 0.1 µM, first compound 0.1 µM
[7] = second compound 0.1 µM, first compound 0.316 µM
[8] = second compound 0.1 µM, first compound 1 µM
[9] = second compound 0.316 µM, first compound 0.0316 µM
[10] = second compound 0.316 µM, first compound 0.1 µM
[11] = second compound 0.316 µM, first compound 0.316 µM
[12] = second compound 0.316 µM, first compound 1 µM
[13] = second compound 1 µM, first compound 0.0316 µM
[14] = second compound 1 µM, first compound 0.1 µM
[15] = second compound 1 µM, first compound 0.316 µM
[16] = second compound 1 µM, first compound 1 µM
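Note: spheroids exposed to compound for 7 days before viability read.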
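Throughout, for viability, T/C: 100% = DMSO vehicle-treated spheroids.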

CCN1CCN(Cc2ccc(Nc3ncc(F)c(-c4cc(F)c5nc(C)n(C(C)C)c5c4)n3)nc2)CC1 + Cc1nc(NC(=O)N2CCCC2C(N)=O)sc1-c1ccnc(C(C)(C)C(F)(F)F)c1
IC50 (second compound 0.0316 µM): > 1000 nM | IC50 (second compound 0.1 µM): > 1000 nM | IC50 (second compound 0.316 µM): > 1000 nM | IC50 (second compound 1 µM): < 3.16 nM | IC50 (second compound 3.16 µM): < 3.16 nM | IC50 (second compound 10 µM): < 3.16 nM | viability, T/C (second compound 0.0316 µM, first compound 0.00316 µM): 102% | viability, T/C (second compound 0.0316 µM, first compound 0.01 µM): 92.9% | viability, T/C [1]: 98.6% | viability, T/C [2]: 103% | viability, T/C [3]: 111% | viability, T/C [4]: 103% | viability, T/C (second compound 0.1 µM, first compound 0.00316 µM): 83.9% | viability, T/C (second compound 0.1 µM, first compound 0.01 µM): 85.8% | viability, T/C [5]: 91.5% | viability, T/C [6]: 91.9% | viability, T/C [7]: 105% | viability, T/C [8]: 104% | viability, T/C (second compound 0.316 µM, first compound 0.00316 µM): 59.5% | viability, T/C (second compound 0.316 µM, first compound 0.01 µM): 61.1% | viability, T/C [9]: 72.2% | viability, T/C [10]: 73.8% | viability, T/C [11]: 80.7% | viability, T/C [12]: 83.3% | viability, T/C (second compound 1 µM, first compound 0.00316 µM): 37.2% | viability, T/C (second compound 1 µM, first compound 0.01 µM): 38.8% | viability, T/C [13]: 39.1% | viability, T/C [14]: 45% | viability, T/C [15]: 53.3% | viability, T/C [16]: 61.5% | viability, T/C (second compound 3.16 µM, first compound 0.00316 µM): 15.4% | viability, T/C (second compound 3.16 µM, first compound 0.01 µM): 17% | viability, T/C (second compound 3.16 µM, first compound 0.0316 µM): 19.5% | viability, T/C (second compound 3.16 µM, first compound 0.1 µM): 21% | viability, T/C (second compound 3.16 µM, first compound 0.316 µM): 28.6% | viability, T/C (second compound 3.16 µM, first compound 1 µM): 42% | viability, T/C (second compound 10 µM, first compound 0.00316 µM): 3.79% | viability, T/C (second compound 10 µM, first compound 0.01 µM): 4.44% | viability, T/C (second compound 10 µM, first compound 0.0316 µM): 4.59% | viability, T/C (second compound 10 µM, first compound 0.1 µM): 4.85% | viability, T/C (second compound 10 µM, first compound 0.316 µM): 8.73% | viability, T/C (second compound 10 µM, first compound 1 µM): 14.2%

CC(C)NCC(C(=O)N1CCN(c2ncnc3c2C(C)CC3O)CC1)c1ccc(Cl)cc1 (centres undefined) + CC(Nc1ccc2c(c1)OCCn1cc(N3C(=O)OCC3C(F)F)nc1-2)C(N)=O
IC50 (second compound 0.00316 µM): 304 nM | IC50 (second compound 0.01 µM): 275 nM | IC50 (second compound 0.0316 µM): 65.5 nM | IC50 (second compound 0.1 µM): < 31.6 nM | IC50 (second compound 0.316 µM): < 31.6 nM | IC50 (second compound 1 µM): < 31.6 nM | viability, T/C (second compound 0.00316 µM, first compound 0.0316 µM): 84% | viability, T/C (second compound 0.00316 µM, first compound 0.1 µM): 70% | viability, T/C (second compound 0.00316 µM, first compound 0.316 µM): 50.4% | viability, T/C (second compound 0.00316 µM, first compound 1 µM): 26.5% | viability, T/C (second compound 0.00316 µM, first compound 3.16 µM): 13.8% | viability, T/C (second compound 0.00316 µM, first compound 10 µM): 9.57% | viability, T/C (second compound 0.01 µM, first compound 0.0316 µM): 64.8% | viability, T/C (second compound 0.01 µM, first compound 0.1 µM): 69% | viability, T/C (second compound 0.01 µM, first compound 0.316 µM): 45.6% | viability, T/C (second compound 0.01 µM, first compound 1 µM): 24.4% | viability, T/C (second compound 0.01 µM, first compound 3.16 µM): 13.4% | viability, T/C (second compound 0.01 µM, first compound 10 µM): 9.59% | viability, T/C [1]: 52% | viability, T/C [2]: 48.9% | viability, T/C [3]: 38.6% | viability, T/C [4]: 22.3% | viability, T/C (second compound 0.0316 µM, first compound 3.16 µM): 12.2% | viability, T/C (second compound 0.0316 µM, first compound 10 µM): 8.08% | viability, T/C [5]: 35.4% | viability, T/C [6]: 35.5% | viability, T/C [7]: 31.3% | viability, T/C [8]: 19.5% | viability, T/C (second compound 0.1 µM, first compound 3.16 µM): 11.7% | viability, T/C (second compound 0.1 µM, first compound 10 µM): 7.31% | viability, T/C [9]: 27.1% | viability, T/C [10]: 23.8% | viability, T/C [11]: 23.5% | viability, T/C [12]: 16.4% | viability, T/C (second compound 0.316 µM, first compound 3.16 µM): 10.8% | viability, T/C (second compound 0.316 µM, first compound 10 µM): 7.4% | viability, T/C [13]: 20.5% | viability, T/C [14]: 20% | viability, T/C [15]: 19.1% | viability, T/C [16]: 13.5% | viability, T/C (second compound 1 µM, first compound 3.16 µM): 9.24% | viability, T/C (second compound 1 µM, first compound 10 µM): 7.07%
